# In patent US12123028B2, “Viral inactivation methods for continuous manufacturing of antibodies” (Bayer HealthCare LLC, priority 2018, dated 2024):
# What was measured:
# retroviruses = settings: Triton X-100 ≥0.5%; hold time ≥60 minutes; 15-25° C.; pH 6.0-8.0; clarified, cell-free intermediate of mAb or IgG Fc fusion protein; cited from earlier work
# X-MuLV = experiment: Dual X-MuLV inactivation by low pH and detergent in mAb protein A eluate, remaining infectivity by TCID50 assay on PG-4 cells; type: cell-based, Xenotropic Murine Leukemia Virus; settings: for required inactivation time compared with 0.2% Tween 80 / time required for X-MuLV inactivation: 16° C.; for treatment time to completely inactivate X-MuLV: 18° C.
# Experimental: […] The pH adjusted eluates were then filtered by a 0.22 um filter. Various volumes of 5% detergent stock solution were then added to the filtered protein A eluates. The low pH protein A eluates containing Mega-10, Tween 80 or Tween 20 were pre-incubated at a 16° C. water bath prior to spiking with X-MuLV at a 1:20 ratio. After a thorough mixing, an aliquot of sample was removed immediately and neutralized with 1 M Tris buffer to stop low pH viral inactivation, then immediately quenched with diluent at 1:12 for Mega-10 or at 1:100 for Tween 20 and Tween 80 to stop viral inactivation by the detergent. The collected sample was designated as a time-zero reference. The remaining spiked eluate was returned to the water bath and the samples were collected at indicated times to evaluate the viral inactivation kinetics. The remaining X-MuLV infectivity in the samples post-inactivation treatment was determined by a TCID50 assay that is an endpoint dilution assay to quantify the amount of virus required to produce a cytopathic effect in 50% of inoculated tissue culture cells. Virus titers were estimated using the Spearman-Karber method and reported as TCID50/mL with a calculated 95% confidence interval (CI). Briefly, a sufficient number of 96-well plates with PG-4 (feline S^+L^−, ATCC#CRL-2032) cells were prepared the day before starting the viral inactivation experiments and incubated overnight in a 37° C. humidified CO2 incubator. A set of ten 3.2 fold dilution of the diluted positive control (1:100) and viral inactivated samples were prepared in a dilution block. Each set of the 11 serial dilutions of the samples were inoculated correspondingly onto wells (100 μL per well) of the first 11 columns in a 96-well plate that had been pre-seeded with PG-4 cells. The 12th column in the same plate was inoculated with the corresponding diluent to serve as non-virus negative control. The positive control was prepared by spiking the filtered neutralized protein A eluate with X-MuLV at a 1:20 ratio. The inoculated plates were then incubated in a 37° C. humidified CO2 incubator for approximate 2 hours. A volume of 100 uL of 2× assay medium (92% McCoy's 5A medium, 4% FBS, 2% Penicillin/Streptomycin, 2% L-Glutamine) was added to each well of the plates at the end of incubation. The plates were then returned to the same incubator, and continued incubation for 6 days. Each well of the plates were scored under a microscope for the presence of cytopathic effect (CPE) and the results were recorded in a scoring sheet. Virus titers were then estimated using the Spearman-Karber method and reported as TCID50/mL with a calculated 95% confidence interval (CI).
Molecule,LRF of retroviral inactivation (retroviruses),"time needed for inactivating X-MuLV to the level below the detection limit (X-MuLV; dual treatment: mAb2 protein A eluate pH 4.05 with 0.5% Tween 80, 16° C. (120 minutes by pH 4.0 alone at 18° C.))","incubation time needed for inactivation of X-MuLV to the level below the detection limit (X-MuLV; dual treatment: mAb3 (IgG2) protein A eluate pH 3.97 with 0.5% Tween 80, 16° C. (120 minutes by low pH alone))","required inactivation time (X-MuLV; dual treatment: mAb3 protein A eluate pH 3.99 with 0.2% Tween 80, 16° C. (120 minutes without detergent))",required inactivation time compared with 0.2% Tween 80 (X-MuLV; dual treatment: mAb3 protein A eluate pH 3.99 with 0.3% Tween 80),required inactivation time compared with 0.2% Tween 80 (X-MuLV; dual treatment: mAb3 protein A eluate pH 3.99 with 0.5% Tween 80),time required for X-MuLV inactivation (X-MuLV; mAb3 protein A eluate containing 0.1% Tween 80 at pH 3.7),time required for X-MuLV inactivation (X-MuLV; mAb3 protein A eluate containing 0.1% Tween 80 at pH 3.8),time required for X-MuLV inactivation (X-MuLV; mAb3 protein A eluate containing 0.1% Tween 80 at pH 3.9),time required for X-MuLV inactivation (X-MuLV; mAb3 protein A eluate containing 0.1% Tween 80 at pH 4.0),treatment time to completely inactivate X-MuLV (X-MuLV; mAb4 protein A eluate at pH 4.11 containing 1% Tween 80),treatment time to completely inactivate X-MuLV (X-MuLV; mAb4 protein A eluate at pH 4.20 containing 1% Tween 80),treatment time to completely inactivate X-MuLV (X-MuLV; mAb4 protein A eluate at pH 4.30 containing 1% Tween 80)
Triton X-100,≥ 4.0,–,–,–,–,–,–,–,–,–,–,–,–
CCCCCCCC/C=C\CCCCCCCC(=O)OCCOCC(OCCO)C1OCC(OCCO)C1OCCO (stereo not shown) [Tween 80],–,10 min,5 min,5 min,no further reducing of time,no further reducing of time,0 min,1 min,2.5 min,10 min,1 h,3 h,4 h
